ChEMBL document CHEMBL5579824, “Novel Hsp90-Targeting PROTACs: Enhanced synergy with cisplatin in combination therapy of cervical cancer” (Eur J Med Chem, 2024)
Activity calls are given as the source filed them. The calls are words filed in the database; no cut-off is given here.

Tests used:
SiHa [1] = assay: Induction of apoptosis in human SiHa cells assessed as viable cells at 2.5 uM incubated after 48 hrs by annexin V-FITC/PI staining based flow cytometry (reference value: 90.4 %); assay type: functional; details: read-out: Activity
SiHa [2] = assay: Induction of apoptosis in human SiHa cells assessed as late apoptotic cells at 2.5 uM incubated after 48 hrs by annexin V-FITC/PI staining based flow cytometry (reference value: 6.93 %); assay type: functional
SiHa [3] = assay: Induction of apoptosis in human SiHa cells assessed as necrotic cells at 2.5 uM incubated after 48 hrs by annexin V-FITC/PI staining based flow cytometry (reference value: 0.08 %); assay type: functional
SiHa [4] = assay: Induction of apoptosis in human SiHa cells assessed as late apoptotic cells at 1 uM incubated after 48 hrs by annexin V-FITC/PI staining based flow cytometry (reference value: 6.93 %); assay type: functional
SiHa [5] = assay: Induction of apoptosis in human SiHa cells assessed as late apoptotic cells at 0.05 uM incubated after 48 hrs by annexin V-FITC/PI staining based flow cytometry (reference value: 6.93 %); assay type: functional
SiHa [6] = assay: Synergistic antiproliferative activity against human SiHa cells assessed as combination index at 0.05 uM incubated for 72 hrs in presence of 0.32 uM cisplatin by CCK-8 assay; assay type: functional
SiHa [7] = assay: Synergistic antiproliferative activity against human SiHa cells assessed as combination index at 0.5 uM incubated for 72 hrs in presence of 10 uM cisplatin by CCK-8 assay; assay type: functional
SiHa [8] = assay: Synergistic antiproliferative activity against human SiHa cells assessed as combination index at 0.75 uM incubated for 72 hrs in presence of 0.03 uM cisplatin by CCK-8 assay; assay type: functional
SiHa [9] = assay: Synergistic antiproliferative activity against human SiHa cells assessed as combination index at 5 uM incubated for 72 hrs in presence of 0.1 uM cisplatin by CCK-8 assay; assay type: functional
SiHa [10] = assay: Synergistic antitumor activity against human SiHa cells xenografted in BALB/c nude mouse assessed as reduction in Ki67 protein expression at 2 mg/kg, ip co-treated with cisplatin separately for every two days by immunohistochemical analysis; assay type: functional, organism-based

Which viability at 2.5 µM (SiHa [1]) does the source give for `CC1(C)CC(=O)c2c(C(F)(F)F)nn(-c3ccc(C(N)=O)c(N[C@H]4CC[C@H](OC(=O)CNC(=O)CCCCCCCNc5cccc6c5CN(C5CCC(=O)NC5=O)C6=O)CC4)c3)c2C1` (stereo not given in full) here?
Its viability at 2.5 µM is 55.3%.

And the Activity (SiHa [2])?
The Activity was 22.71%.

And the Activity (SiHa [3])?
Its Activity is 0.68%.

And the Activity (SiHa [4])?
Its Activity is 24.2%.

And the Activity (SiHa [5])?
The Activity was 7.4%.

What about the CI (SiHa [6]) of the same compound?
Its CI is 0.38.

What about the CI (SiHa [7]) of the same compound?
Its CI is 0.17.

What about the CI (SiHa [8]) of the same compound?
The CI was 0.19.

What about the CI (SiHa [9]) of the same compound?
The CI was 1.01.

And the Activity (SiHa [10])?
Its Activity is “Active”.
